From patent publication US7713966B2, “Heterobicyclic metalloprotease inhibitors” (Alantos Pharmaceuticals Holding, Inc., priority 2006, dated 2010)

Experiments:
[1] = molecular target: T1, catalytic domain of MMP-13 enzyme (Homo sapiens, UniProt P45452); assay: Assay for determining MMP-13 inhibition (fluorescent substrate); assay type: biochemical; conditions: read-out: MMP-13 Activity (IC50 MMP-13), Group
T1 construct: catalytic domain of MMP-13 enzyme (produced by Alantos or commercially available from Invitek (Berlin), Cat. # 30100812); purchased Invitek (Berlin) 30100812
Description: The typical assay for MMP-13 activity is carried out in assay buffer comprised of 50 mM Tris, pH 7.5, 150 mM NaCl, 5 mM CaCl2 and 0.05% Brij-35. Different concentrations of tested compounds are prepared in assay buffer in 50 μL aliquots. 10 μL of a 50 nM stock solution of catalytic domain of MMP-13 enzyme (produced by Alantos or commercially available from Invitek (Berlin), Cat. # 30100812) is added to the compound solution. The mixture of enzyme and compound in assay buffer is thoroughly mixed and incubated for 10 min at room temperature. Upon the completion of incubation, the assay is started by addition of 40 μl of a 12.5 μM stock solution of MMP-13 fluorescent substrate (Calbiochem, Cat. No. 444235). The time-dependent increase in fluorescence is measured at the 320 nm excitation and 390 nm emission by automatic plate multireader. The IC50 values are calculated from the initial reaction rates.

[2] = molecular target: T2, activated MMP-8 enzyme (Homo sapiens, UniProt P22894); assay: Assay for determining MMP-8 inhibition (OmniMMP fluorescent substrate); assay type: biochemical; conditions: read-out: MMP-8 Activity (IC50 MMP-8), Group
T2 construct: purchased Calbiochem 444229
T2 sequence (P22894 101-467): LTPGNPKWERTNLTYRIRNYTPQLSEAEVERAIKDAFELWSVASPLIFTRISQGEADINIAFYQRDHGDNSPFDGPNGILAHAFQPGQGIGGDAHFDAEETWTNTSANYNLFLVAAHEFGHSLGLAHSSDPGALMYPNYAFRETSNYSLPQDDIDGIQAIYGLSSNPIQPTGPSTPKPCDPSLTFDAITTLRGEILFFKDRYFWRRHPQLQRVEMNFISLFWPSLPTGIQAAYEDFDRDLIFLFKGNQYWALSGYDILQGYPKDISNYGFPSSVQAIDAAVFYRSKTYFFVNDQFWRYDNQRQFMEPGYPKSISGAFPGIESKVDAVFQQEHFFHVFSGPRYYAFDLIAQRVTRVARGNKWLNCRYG
Description: The typical assay for MMP-8 activity is carried out in assay buffer comprised of 50 mM Tris, pH 7.5, 150 mM NaCl, 5 mM CaCl2 and 0.05% Brij-35. Different concentrations of tested compounds are prepared in assay buffer in 50 μL aliquots. 10 μL of a 50 nM stock solution of activated MMP-8 enzyme (Calbiochem, Cat. No. 444229) is added to the compound solution. The mixture of enzyme and compound in assay buffer is thoroughly mixed and incubated for 10 min at 37° C. Upon the completion of incubation, the assay is started by addition of 40 μL of a 10 μM stock solution of OmniMMP fluorescent substrate (Biomol, Cat. No. P-126). The time-dependent increase in fluorescence is measured at the 320 nm excitation and 390 nm emission by an automatic plate multireader at 37° C. The IC50 values are calculated from the initial reaction rates.

SMILES	IC50 [1] [nM]	IC50 [2] [nM]
O=C(NCc1ccc2c(c1)OC(F)(F)O2)c1nc2ccccc2c(=O)[nH]1 [2/6]	100 to 20000	250 to 20000
O=C(NCc1ccc2c(c1)CCO2)c1nc2ccccc2c(=O)[nH]1 [2/7]	< 100	250 to 20000
Cc1cccc2nc(C(=O)NCc3ccc(F)c(CNc4c(N)c(=O)c4=O)c3)[nH]c(=O)c12 [2/17]	–	250 to 20000
CCOC(=O)c1c(C)sc2nc(C(=O)NCc3ccc4c(c3)NC(=O)CO4)[nH]c(=O)c12 [2/22]	< 100	250 to 20000
O=C1COc2cc(CNC(=O)c3nc4ccc(Cl)cc4c(=O)[nH]3)ccc2N1 [2/27]	100 to 20000	250 to 20000
CCOC(=O)c1sc2nc(C(=O)NCc3ccc4c(c3)NC(=O)CO4)[nH]c(=O)c2c1C [2/28]	< 100	250 to 20000
O=C1COc2ccc(CNC(=O)c3nc4cc(C(F)(F)F)ccc4c(=O)[nH]3)cc2N1 [2/43]	100 to 20000	< 250
Cn1c(C(=O)NCc2ccc3c(c2)NC(=O)CO3)nc2ccccc2c1=O [2/50]	100 to 20000	–
Cc1c(C(=O)Nc2ccccc2)sc2nc(C(=O)NCc3ccc4c(c3)NC(=O)CO4)[nH]c(=O)c12 [2/62]	< 100	250 to 20000
COc1cc2nc(C(=O)NCc3ccc4c(c3)NC(=O)CO4)[nH]c(=O)c2cc1OC [2/65]	100 to 20000	–
C=Cc1ccc2nc(C(=O)NCc3ccc4c(c3)NC(=O)CO4)[nH]c(=O)c2c1 [2/69]	< 100	< 250
CCc1ccc2nc(C(=O)NCc3ccc4c(c3)NC(=O)CO4)[nH]c(=O)c2c1 [2/70]	< 100	< 250
O=C1COc2ccc(CNC(=O)c3nc4scc(-c5ccccc5Cl)c4c(=O)[nH]3)cc2N1 [2/101]	< 100	250 to 20000
Cn1ncc2c(=O)[nH]c(C(=O)NCc3ccc4c(c3)NC(=O)CO4)nc21 [2/111]	< 100	–
O=C1COc2ccc(CNC(=O)c3nc4scc(-c5cccnc5)c4c(=O)[nH]3)cc2N1 [2/115]	< 100	250 to 20000
Cc1nsc2nc(C(=O)NCc3ccc4c(c3)NC(=O)CO4)[nH]c(=O)c12 [2/136]	100 to 20000	–
O=C1COc2ccc(CNC(=O)c3nc4scc(-c5ccc(-c6ccccc6)cc5)c4c(=O)[nH]3)cc2N1 [2/138]	< 100	–
O=C(Cc1csc2nc(C(=O)NCc3ccc4c(c3)NC(=O)CO4)[nH]c(=O)c12)NCc1ccc2c(c1)NC(=O)CO2 [2/149]	< 100	< 250
CNC(=O)Cc1csc2nc(C(=O)NCc3ccc4c(c3)NC(=O)CO4)[nH]c(=O)c12 [2/157]	< 100	< 250
CCOC(=O)Cc1c([N+](=O)[O-])sc2nc(C(=O)NCc3ccc4c(c3)CN(c3c(N)c(=O)c3=O)CC4)[nH]c(=O)c12 [2/164]	100 to 20000	–
Cc1nc2c(=O)[nH]c(C(=O)NCc3ccc4c(c3)NC(=O)CO4)nc2s1 [2/179]	< 100	–
Cc1nc2c(=O)[nH]c(C(=O)NCc3ccc4c(c3)CN(c3c(N)c(=O)c3=O)CC4)nc2s1 [2/180]	< 100	–

SMILES	IC50 [1] [nM]	IC50 [2] [nM]
O=C1COc2cc(CNC(=O)c3nc4ccccc4c(=O)[nH]3)ccc2N1 [2/205]	100 to 20000	–
Cc1sc2nc(C(=O)NCc3ccc4c(c3)NC(=NO)CO4)[nH]c(=O)c2c1C [2/275]	< 100	< 250
Cc1sc2nc(C(=O)NCc3cc(Br)c4c(c3)NC(=O)CO4)[nH]c(=O)c2c1C [2/281]	< 100	–
Cc1csc(-c2csc3nc(C(=O)NCc4ccc5c(c4)NC(=O)CO5)[nH]c(=O)c23)n1 [2/379]	< 100	–
Cc1sc2nc(C(=O)NCc3ccc4c(c3)NC(=O)CO4)[nH]c(=O)c2c1C(=O)O [4/1]	100 to 20000	–
Cc1c(C(=O)O)sc2nc(C(=O)NCc3ccc4c(c3)NC(=O)CO4)[nH]c(=O)c12 [4/2]	100 to 20000	–
O=C1COc2ccc(CNC(=O)c3nc4ccc(CNC(=O)C56C7C8C5C5C6C7C85C(=O)O)cc4c(=O)[nH]3)cc2N1 (stereo not drawn) [4/3]	< 100	< 250
Cc1c(CCC(=O)O)sc2nc(C(=O)NCc3ccc4c(c3)NC(=O)CO4)[nH]c(=O)c12 [4/8]	–	< 250
NC(=O)c1ccc2c(=O)[nH]c(C(=O)NCc3ccc4c(c3)NC(=O)CO4)nc2c1 [13/1]	100 to 20000	–
O=C1COc2ccc(CNC(=O)c3nc4ccc(C(=O)Nc5ccccc5)cc4c(=O)[nH]3)cc2N1 [31/1]	100 to 20000	–
C[C@@H](Nc1cccc2nc(C(=O)NCc3ccc4c(c3)NC(=O)CO4)[nH]c(=O)c12)c1ccccc1 [36/2]	< 100	< 250
C[C@@H](Nc1cccc2nc(C(=O)NCc3ccc4c(c3)NC(=O)CO4)[nH]c(=O)c12)C(=O)OC(C)(C)C [36/6]	–	< 250
NC(=O)[C@@H]1CCCN1c1cccc2nc(C(=O)NCc3ccc4c(c3)NC(=O)CO4)[nH]c(=O)c12 [36/8]	< 100	–
C[C@@H](O)CNc1cccc2nc(C(=O)NCc3ccc4c(c3)NC(=O)CO4)[nH]c(=O)c12 [36/12]	< 100	< 250
C[C@H](O)CNc1cccc2nc(C(=O)NCc3ccc4c(c3)NC(=O)CO4)[nH]c(=O)c12 [36/13]	–	< 250
O=C1COc2ccc(CNC(=O)c3nc4cccc(C(F)(F)F)c4c(=O)[nH]3)cc2N1 [39/1]	< 100	–
O=C1COc2ccc(CNC(=O)c3nc4nonc4c(=O)[nH]3)cc2N1 [39/3]	100 to 20000	–
O=C1COc2ccc(CNC(=O)c3nc4snnc4c(=O)[nH]3)cc2N1 [39/6]	100 to 20000	–
Cc1noc2nc(C(=O)NCc3ccc4c(c3)NC(=O)CO4)[nH]c(=O)c12 [39/12]	100 to 20000	–
COc1cccc2c(=O)[nH]c(C(=O)NCc3ccc4c(c3)NC(=O)CO4)nc12 [39/21]	100 to 20000	–
O=C1COc2ccc(CNC(=O)c3nc4cc([N+](=O)[O-])ccc4c(=O)[nH]3)cc2N1 [39/22]	< 100	< 250
O=C1COc2ccc(CNC(=O)c3nc4c(Br)cc(F)cc4c(=O)[nH]3)cc2N1 [39/23]	< 100	–

SMILES	IC50 [1] [nM]	IC50 [2] [nM]
Nc1c(N2CCc3ccc(CNC(=O)c4nc5cc(F)c(F)cc5c(=O)[nH]4)cc3C2)c(=O)c1=O [39/24]	< 100	250 to 20000
O=C1COc2ccc(CNC(=O)c3nc4sccc4c(=O)[nH]3)cc2N1 [Example 1]	< 100	–
O=C(NCc1ccc2c(c1)OCO2)c1nc2ccccc2c(=O)[nH]1 [Example 2/5]	< 100	250 to 20000
Cc1cccc2nc(C(=O)NCc3cccc(CNc4c(N)c(=O)c4=O)c3)[nH]c(=O)c12 [Example 2/15]	–	250 to 20000
O=C1COc2ccc(CNC(=O)c3nc4ccc([N+](=O)[O-])cc4c(=O)[nH]3)cc2N1 [Example 2/57]	< 100	250 to 20000
NC(=O)Cc1csc2nc(C(=O)NCc3ccc4c(c3)NC(=O)CO4)[nH]c(=O)c12 [Example 2/156]	–	< 250
O=C1COc2ccc(CNC(=O)c3nc4ccc(C(=O)O)cc4c(=O)[nH]3)cc2N1 [Example 3]	< 100	–
Nc1ccc2nc(C(=O)NCc3ccc4c(c3)NC(=O)CO4)[nH]c(=O)c2c1 [Example 5]	< 100	< 250
O=C1COc2ccc(CNC(=O)c3nc4ccc(C#Cc5ccccc5)cc4c(=O)[nH]3)cc2N1 [Example 8/1]	< 100	–
C#Cc1ccc2nc(C(=O)NCc3ccc4c(c3)NC(=O)CO4)[nH]c(=O)c2c1 [Example 8]	< 100	< 250
O=C1COc2ccc(CNC(=O)c3nc4ccc(-c5nnn[nH]5)cc4c(=O)[nH]3)cc2N1 [Example 11]	< 100	–
NCc1ccc2nc(C(=O)NCc3ccc4c(c3)NC(=O)CO4)[nH]c(=O)c2c1 [Example 15]	< 100	–
CC(=NO)c1sc2nc(C(=O)NCc3ccc4c(c3)NC(=O)CO4)[nH]c(=O)c2c1C [Example 16]	< 100	< 250
O=C(O)CCC(=O)NCc1ccc2nc(C(=O)NCc3ccc4c(c3)NC(=O)CO4)[nH]c(=O)c2c1 [Example 17]	< 100	< 250
Cc1c(CO)sc2nc(C(=O)NCc3ccc4c(c3)NC(=O)CO4)[nH]c(=O)c12 [Example 20a]	< 100	–
CCOC(=O)c1sc2nc(C(=O)NCc3ccc4c(c3)NCCO4)[nH]c(=O)c2c1C [Example 20b]	100 to 20000	–
Cc1c(CO)sc2nc(C(=O)NCc3ccc4c(c3)NCCO4)[nH]c(=O)c12 [Example 20c]	< 100	< 250
CC(=O)OCc1sc2nc(C(=O)NCc3ccc4c(c3)N(C(C)=O)CCO4)[nH]c(=O)c2c1C [Example 24]	< 100	–
CC(=O)N1CCOc2ccc(CNC(=O)c3nc4sc(CO)c(C)c4c(=O)[nH]3)cc21 [Example 25]	100 to 20000	–
Cc1sc2nc(C(=O)NCc3ccc4c(c3)NS(=O)(=O)CO4)[nH]c(=O)c2c1C [Example 38]	100 to 20000	–
